Assay results taken from PubChem BioAssay AID1963843 (Molecular Pharmacology Branch, DTP, NCI, 2024).
pIC50: −log10 of the molar value.

Tested on: 616215-338-R-J1-PDC complex spheroid viability
Experiment: Anticancer human tumor 616215-338-R-J1-PDC patient-derived colon adenocarcinoma cell line growth inhibition [POLQ]
Conditions: for pIC50: curve of first compound; for viability, T/C: stronger effect = lower value
In short: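 Patient-derived tumour cells were co-cultured with HUVEC and mesenchymal stem cells as multicellular spheroids at 37 °C. They were treated with POLQ inhibitors (novobiocin, ART-558, RP6685) alone or combined with other agents. Top concentrations were at or near clinical Cmax (otherwise 10 microM; SN-38 at 1 microM), decreasing in half-log steps.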

[1] = second compound 0.0316 µM, first compound 0.0316 µM
[2] = second compound 0.0316 µM, first compound 0.1 µM
[3] = second compound 0.0316 µM, first compound 0.316 µM
[4] = second compound 0.0316 µM, first compound 1 µM
[5] = second compound 0.0316 µM, first compound 3.16 µM
[6] = second compound 0.0316 µM, first compound 10 µM
[7] = second compound 0.1 µM, first compound 0.0316 µM
[8] = second compound 0.1 µM, first compound 0.1 µM
[9] = second compound 0.1 µM, first compound 0.316 µM
[10] = second compound 0.1 µM, first compound 1 µM
[11] = second compound 0.1 µM, first compound 3.16 µM
[12] = second compound 0.1 µM, first compound 10 µM
[13] = second compound 0.316 µM, first compound 0.0316 µM
[14] = second compound 0.316 µM, first compound 0.1 µM
[15] = second compound 0.316 µM, first compound 0.316 µM
[16] = second compound 0.316 µM, first compound 1 µM
[17] = second compound 0.316 µM, first compound 3.16 µM
[18] = second compound 0.316 µM, first compound 10 µM
[19] = second compound 1 µM, first compound 0.0316 µM
[20] = second compound 1 µM, first compound 0.1 µM
[21] = second compound 1 µM, first compound 0.316 µM
[22] = second compound 1 µM, first compound 1 µM
[23] = second compound 1 µM, first compound 3.16 µM
[24] = second compound 1 µM, first compound 10 µM
[25] = second compound 3.16 µM, first compound 0.0316 µM
[26] = second compound 3.16 µM, first compound 0.1 µM
[27] = second compound 3.16 µM, first compound 0.316 µM
[28] = second compound 3.16 µM, first compound 1 µM
[29] = second compound 3.16 µM, first compound 3.16 µM
[30] = second compound 3.16 µM, first compound 10 µM
[31] = second compound 10 µM, first compound 0.0316 µM
[32] = second compound 10 µM, first compound 0.1 µM
[33] = second compound 10 µM, first compound 0.316 µM
[34] = second compound 10 µM, first compound 1 µM
[35] = second compound 10 µM, first compound 3.16 µM
[36] = second compound 10 µM, first compound 10 µM
[37] = second compound 0.0316 µM, first compound 0.00316 µM
[38] = second compound 0.0316 µM, first compound 0.01 µM
[39] = second compound 0.1 µM, first compound 0.00316 µM
[40] = second compound 0.1 µM, first compound 0.01 µM
[41] = second compound 0.316 µM, first compound 0.00316 µM
[42] = second compound 0.316 µM, first compound 0.01 µM
[43] = second compound 1 µM, first compound 0.00316 µM
[44] = second compound 1 µM, first compound 0.01 µM
[45] = second compound 3.16 µM, first compound 0.00316 µM
[46] = second compound 3.16 µM, first compound 0.01 µM
[47] = second compound 10 µM, first compound 0.00316 µM
[48] = second compound 10 µM, first compound 0.01 µM
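Note: spheroids exposed to compounds for one week before readout.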
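Throughout, for viability, T/C: percent viability relative to DMSO vehicle wells taken as 100%.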

CC1COCCN1c1cc(C2(S(C)(=N)=O)CC2)nc(-c2ccnc3[nH]ccc23)n1 (stereo not drawn) + Nc1ccc(C#CCN(C(=O)Cc2ncc(C(F)(F)F)cc2C(F)(F)F)c2ccc(F)cc2)nn1
pIC50 (second compound 0.0316 µM): 5.30 | pIC50 (second compound 0.1 µM): 5.27 | pIC50 (second compound 0.316 µM): 5.17 | pIC50 (second compound 1 µM): 5.27 | pIC50 (second compound 3.16 µM): 5.16 | pIC50 (second compound 10 µM): 5.54 | viability, T/C [1]: 115% | viability, T/C [2]: 96.5% | viability, T/C [3]: 93% | viability, T/C [4]: 93.4% | viability, T/C [5]: 56.9% | viability, T/C [6]: 32.6% | viability, T/C [7]: 93.9% | viability, T/C [8]: 104% | viability, T/C [9]: 94.3% | viability, T/C [10]: 94.7% | viability, T/C [11]: 63.1% | viability, T/C [12]: 34.7% | viability, T/C [13]: 101% | viability, T/C [14]: 97.6% | viability, T/C [15]: 93.8% | viability, T/C [16]: 97.3% | viability, T/C [17]: 62.3% | viability, T/C [18]: 43.7% | viability, T/C [19]: 108% | viability, T/C [20]: 101% | viability, T/C [21]: 90.9% | viability, T/C [22]: 84.7% | viability, T/C [23]: 59.9% | viability, T/C [24]: 36.5% | viability, T/C [25]: 87.5% | viability, T/C [26]: 95.3% | viability, T/C [27]: 87.4% | viability, T/C [28]: 83% | viability, T/C [29]: 68.8% | viability, T/C [30]: 41.6% | viability, T/C [31]: 96.5% | viability, T/C [32]: 91.5% | viability, T/C [33]: 78.2% | viability, T/C [34]: 92.1% | viability, T/C [35]: 46.5% | viability, T/C [36]: 35.5%

CCCS(=O)(=O)Nc1ccc(F)c(C(=O)c2c[nH]c3ncc(-c4ccc(Cl)cc4)cc23)c1F + Nc1ccc(C#CCN(C(=O)Cc2ncc(C(F)(F)F)cc2C(F)(F)F)c2ccc(F)cc2)nn1
pIC50 (second compound 0.0316 µM): 5.20 | pIC50 (second compound 0.1 µM): 5.21 | pIC50 (second compound 0.316 µM): 5.21 | pIC50 (second compound 1 µM): 5.21 | pIC50 (second compound 3.16 µM): 5.21 | pIC50 (second compound 10 µM): 5.25 | viability, T/C [1]: 107% | viability, T/C [2]: 109% | viability, T/C [3]: 105% | viability, T/C [4]: 110% | viability, T/C [5]: 114% | viability, T/C [6]: 11.4% | viability, T/C [7]: 107% | viability, T/C [8]: 111% | viability, T/C [9]: 110% | viability, T/C [10]: 109% | viability, T/C [11]: 101% | viability, T/C [12]: 11.5% | viability, T/C [13]: 101% | viability, T/C [14]: 104% | viability, T/C [15]: 106% | viability, T/C [16]: 105% | viability, T/C [17]: 102% | viability, T/C [18]: 13.8% | viability, T/C [19]: 112% | viability, T/C [20]: 114% | viability, T/C [21]: 101% | viability, T/C [22]: 111% | viability, T/C [23]: 102% | viability, T/C [24]: 11.9% | viability, T/C [25]: 111% | viability, T/C [26]: 103% | viability, T/C [27]: 107% | viability, T/C [28]: 102% | viability, T/C [29]: 100% | viability, T/C [30]: 13% | viability, T/C [31]: 109% | viability, T/C [32]: 86.3% | viability, T/C [33]: 101% | viability, T/C [34]: 94.4% | viability, T/C [35]: 92.3% | viability, T/C [36]: 9.03%

COc1cccc(OCCCN)c1-c1cc(Nc2cnc(C#N)cn2)n[nH]1 + Nc1ccc(C#CCN(C(=O)Cc2ncc(C(F)(F)F)cc2C(F)(F)F)c2ccc(F)cc2)nn1
pIC50 (second compound 0.0316 µM): 6.87 | pIC50 (second compound 0.1 µM): 7.10 | pIC50 (second compound 0.316 µM): 7.12 | pIC50 (second compound 1 µM): 7.28 | pIC50 (second compound 3.16 µM): 7.18 | pIC50 (second compound 10 µM): 7.41 | viability, T/C [37]: 109% | viability, T/C [38]: 84.9% | viability, T/C [1]: 91.2% | viability, T/C [2]: 53.8% | viability, T/C [3]: 36.9% | viability, T/C [4]: 33.1% | viability, T/C [39]: 101% | viability, T/C [40]: 102% | viability, T/C [7]: 77.3% | viability, T/C [8]: 43% | viability, T/C [9]: 42.6% | viability, T/C [10]: 36% | viability, T/C [41]: 98.9% | viability, T/C [42]: 97.2% | viability, T/C [13]: 71.2% | viability, T/C [14]: 43.3% | viability, T/C [15]: 42.4% | viability, T/C [16]: 34.7% | viability, T/C [43]: 97.5% | viability, T/C [44]: 96.6% | viability, T/C [19]: 60.3% | viability, T/C [20]: 38.6% | viability, T/C [21]: 38% | viability, T/C [22]: 29.4% | viability, T/C [45]: 103% | viability, T/C [46]: 90.3% | viability, T/C [25]: 72.7% | viability, T/C [26]: 35.7% | viability, T/C [27]: 32.9% | viability, T/C [28]: 29.7% | viability, T/C [47]: 91.7% | viability, T/C [48]: 69.3% | viability, T/C [31]: 50.2% | viability, T/C [32]: 41.2% | viability, T/C [33]: 34.4% | viability, T/C [34]: 24%

Cn1ncnc1[C@H]1c2n[nH]c(=O)c3cc(F)cc(c23)N[C@@H]1c1ccc(F)cc1 + Nc1ccc(C#CCN(C(=O)Cc2ncc(C(F)(F)F)cc2C(F)(F)F)c2ccc(F)cc2)nn1
pIC50 (second compound 0.0316 µM): < 7.00 | pIC50 (second compound 0.1 µM): < 7.00 | pIC50 (second compound 0.316 µM): < 7.00 | pIC50 (second compound 1 µM): < 7.00 | pIC50 (second compound 3.16 µM): < 7.00 | pIC50 (second compound 10 µM): < 7.00 | viability, T/C (second compound 0.0316 µM, first compound 0.000316 µM): 104% | viability, T/C (second compound 0.0316 µM, first compound 0.001 µM): 106% | viability, T/C [37]: 99.7% | viability, T/C [38]: 95.1% | viability, T/C [1]: 88.5% | viability, T/C [2]: 86.7% | viability, T/C (second compound 0.1 µM, first compound 0.000316 µM): 112% | viability, T/C (second compound 0.1 µM, first compound 0.001 µM): 91.6% | viability, T/C [39]: 107% | viability, T/C [40]: 113% | viability, T/C [7]: 108% | viability, T/C [8]: 77.6% | viability, T/C (second compound 0.316 µM, first compound 0.000316 µM): 106% | viability, T/C (second compound 0.316 µM, first compound 0.001 µM): 97.3% | viability, T/C [41]: 111% | viability, T/C [42]: 97.2% | viability, T/C [13]: 104% | viability, T/C [14]: 83% | viability, T/C (second compound 1 µM, first compound 0.000316 µM): 108% | viability, T/C (second compound 1 µM, first compound 0.001 µM): 99.9% | viability, T/C [43]: 110% | viability, T/C [44]: 93.9% | viability, T/C [19]: 91.2% | viability, T/C [20]: 77.6% | viability, T/C (second compound 3.16 µM, first compound 0.000316 µM): 99.4% | viability, T/C (second compound 3.16 µM, first compound 0.001 µM): 98% | viability, T/C [45]: 103% | viability, T/C [46]: 90.5% | viability, T/C [25]: 99.3% | viability, T/C [26]: 95.7% | viability, T/C (second compound 10 µM, first compound 0.000316 µM): 94.8% | viability, T/C (second compound 10 µM, first compound 0.001 µM): 98.7% | viability, T/C [47]: 101% | viability, T/C [48]: 90.9% | viability, T/C [31]: 89.9% | viability, T/C [32]: 65.1%
